In ChEMBL document CHEMBL5634111, “Design, synthesis, and anti-respiratory syncytial virus potential of novel 3-(1,2,3-triazol-1-yl)furoxazine-fused benzimidazole derivatives” (Eur J Med Chem, 2023):
pEC50: −log10 of the molar value.

How the values were obtained:
[1] = Cytotoxicity against human HepG2 cells measured after 24 hrs by MTT assay; format: toxicity, cell-based
[2] = system: Respiratory syncytial virus; assay: Antiviral activity against RSV infected in human HepG2 cells preincubated for 24 hrs followed by viral infection for 2 hrs and measured after 60 hrs by MTT assay; format: functional, organism-based
[3] = Selectivity index, ratio of CC50 for human HepG2 cells to EC50 for RSV infected in human HepG2 cells; format: toxicity, cell-based; conditions: read-out: Ratio CC50/EC50

| SMILES | CC50 at 24 h [1] | pEC50 [2] | selectivity ratio [3] |
| --- | --- | --- | --- |
| Brc1cc2nc3n(c2cc1Br)[C@H]1OC[C@H](n2cc(-c4ccccc4)nn2)[C@H]1OC3 | 63.6 µM | – | – |
| CCCCCCc1cn([C@H]2CO[C@H]3[C@@H]2OCc2nc4cc(Br)c(Br)cc4n23)nn1 | 52.3 µM | – | – |
| OCc1cn([C@H]2CO[C@H]3[C@@H]2OCc2nc4cc(Br)c(Br)cc4n23)nn1 | 104 µM | – | – |
| Cc1c(Br)cc2nc3n(c2c1Br)[C@H]1OC[C@H](n2cc(-c4ccccc4)nn2)[C@H]1OC3 | 53.3 µM | – | – |
| Brc1cc2nc3n(c2cc1Br)[C@H]1OC[C@H](n2cc(C4CC4)nn2)[C@H]1OC3 | 40 µM | 5.20 | 6.39 |
| CCOC(=O)c1cn([C@H]2CO[C@H]3[C@@H]2OCc2nc4cc(Br)c(Br)cc4n23)nn1 | 26.9 µM | – | – |
| OCCCc1cn([C@H]2CO[C@H]3[C@@H]2OCc2nc4cc(Br)c(Br)cc4n23)nn1 | 150 µM | – | – |
| Brc1cc2nc3n(c2cc1Br)[C@H]1OC[C@H](n2cc(COc4ccccc4)nn2)[C@H]1OC3 | 121 µM | 4.66 | 5.73 |
| OCCc1cn([C@H]2CO[C@H]3[C@@H]2OCc2nc4cc(Br)c(Br)cc4n23)nn1 | 70.1 µM | – | – |
| Cc1cn([C@H]2CO[C@H]3[C@@H]2OCc2nc4cc(Br)c(C)c(Br)c4n23)nn1 | 94.6 µM | 4.85 | 6.68 |
| CCCCCc1cn([C@H]2CO[C@H]3[C@@H]2OCc2nc4cc(Br)c(Br)cc4n23)nn1 | 237 µM | – | – |
| NC(=O)c1ncn([C@@H]2O[C@H](CO)[C@@H](O)[C@H]2O)n1 [RIBAVIRIN] | 246 µM | 5.08 | 29.2 |
